Here are results for 8 molecules from the NIST ThermoML archive (doi:10.1021/acs.jced.7b00945).

± gives the expanded uncertainty stated by the source.

The nature of data set [1]: refractive index (Na D-line) (dimensionless); wn = mass fraction of the nth substance listed. To be noted: 303 K, 100 kPa, Liquid, Standard Abbe refractometry.
Data set [2] in a line: refractive index (Na D-line) (dimensionless). As to conditions: 303 K; 100 kPa; Liquid; Standard Abbe refractometry.

The term refractive index denotes a measure of how strongly the sample bends light. With `OCCOCCO` [diethylene glycol] + O, the refractive index is recorded as 1.43408 ± 0.00043 in data set [1] (w2 = 0.11); 1.42406 ± 0.00042 in data set [1] (w2 = 0.2); 1.41341 ± 0.00041 in data set [1] (w2 = 0.3); 1.40107 ± 0.00042 in data set [1] (w2 = 0.41); 1.38922 ± 0.00041 in data set [1] (w2 = 0.5); 1.37817 ± 0.0004 in data set [1] (w2 = 0.6). For the same molecule, the refractive index in data set [1] (w2 = 0.7) stood at 1.36617 ± 0.0004; in data set [1] (w2 = 0.8), 1.35413 ± 0.0004; in data set [1] (w2 = 0.9), 1.34259 ± 0.00039.

Turning to `OCCO` [1,2-ethanediol] + O, the refractive index in data set [1] (w2 = 0.1) came out at 1.4196 ± 0.00038; in data set [1] (w2 = 0.2), 1.41005 ± 0.00038; in data set [1] (w2 = 0.3) it was 1.4008 ± 0.00038; in data set [1] (w2 = 0.41), 1.38994 ± 0.00038; in data set [1] (w2 = 0.5), 1.38106 ± 0.00038; in data set [1] (w2 = 0.6), 1.37126 ± 0.00038. The refractive index in data set [1] (w2 = 0.7) came out at 1.36074 ± 0.00038; in data set [1] (w2 = 0.8) it was 1.35122 ± 0.00038; in data set [1] (w2 = 0.89), 1.34168 ± 0.00037.

Consider `O` [water] + OCCOCCOCCOCCO, for which the refractive index in data set [1] (w1 = 1) stood at 1.33179 ± 0.00032.

In the case of `O` [water] + OCCO, the refractive index in data set [1] (w1 = 1) amounted to 1.33179 ± 0.00032.

Regarding `O` [water] + OCCOCCO, the refractive index in data set [1] (w1 = 1) is 1.33179 ± 0.00032.

With `OCCOCCOCCO` [triethylene glycol] + O, the refractive index in data set [1] (w2 = 0.1) amounted to 1.44204 ± 0.00042; in data set [1] (w2 = 0.21) it was 1.43047 ± 0.00042; in data set [1] (w2 = 0.3) it was 1.41992 ± 0.00042; in data set [1] (w2 = 0.41) it was 1.40643 ± 0.00043; in data set [1] (w2 = 0.5) it was 1.39413 ± 0.00042; in data set [1] (w2 = 0.6), 1.38175 ± 0.00042. Moreover, the refractive index in data set [1] (w2 = 0.7) is listed as 1.36838 ± 0.00041; in data set [1] (w2 = 0.8), 1.35616 ± 0.0004; in data set [1] (w2 = 0.9), 1.34378 ± 0.0004.

In the case of `O` [water], the refractive index in data set [2] is reported as 1.33179 ± 0.00032.

`O` [water] + OCCOCCOCCO: the refractive index in data set [1] (w1 = 1) was determined as 1.33179 ± 0.00032.
